Tests used:
[1] = tested on: HCV replicon RNA (GenBank Accession No. AJ242654); assay: HCV Replicon Assay (replicon RNA reduction and/or Fluc reporter signal); assay type: cell-based, Hepatitis C virus; conditions: Hepatitis C virus, 72 h, replicon-containing cells cultured with test compound for up to 3 days
In short: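 Bicistronic replicon-containing cells cultured with compound for up to 3 days, with interferon as positive control. Inhibition quantified by replicon RNA reduction and/or Fluc reporter signal; IC50 values generally derived from replicon RNA reduction.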

## C[C@@H](NS(=O)(=O)c1ccc(-c2c(C(N)=O)c3cc(C(F)(F)F)cnc3n2C2CCCCC2)cc1)C(F)(F)F [Cpd 444, 1-cyclohexyl-5-(trifluoromethyl)-2-(4-{[(2R)-1,1,1-trifluoropropan-2-yl]sulfamoyl}phenyl)-1H-pyrrolo[2,3-b]pyridine-3-carboxamide]
[1]
  IC50: < 0.5 µM
other
  melting point: 285 to 287 °C

## CC(C)S(=O)(=O)Nc1ccc(-c2c(C(N)=O)c3cc(C(F)(F)F)cnc3n2C2CCCCC2)cc1 [Cpd 446, 1-cyclohexyl-2-{4-[(propan-2-ylsulfonyl)amino]phenyl}-5-(trifluoromethyl)-1H-pyrrolo[2,3-b]pyridine-3-carboxamide]
[1]
  IC50: < 0.5 µM
other
  melting point: 203 to 205 °C

## CC1(S(=O)(=O)Nc2ccc(-c3c(C(N)=O)c4cc(C(F)(F)F)cnc4n3C3CCCCC3)cc2)CC1 [Cpd 447, 1-cyclohexyl-2-(4-{[(1-methylcyclopropyl)sulfonyl]amino}phenyl)-5-(trifluoromethyl)-1H-pyrrolo[2,3-b]pyridine-3-carboxamide]
[1]
  IC50: < 0.5 µM
other
  melting point: 268 to 270 °C

## NC(=O)c1c(-c2ccc(NS(=O)(=O)C3CC3)cc2)n(C2CCCCC2)c2ncc(C(F)(F)F)cc12 [Cpd 448, 1-cyclohexyl-2-{4-[(cyclopropylsulfonyl)amino]phenyl}-5-(trifluoromethyl)-1H-pyrrolo[2,3-b]pyridine-3-carboxamide]
[1]
  IC50: 0.5 to 2 µM
other
  melting point: 220 to 222 °C

## NC(=O)c1c(-c2ccc(NS(=O)(=O)C3CCC3)cc2)n(C2CCCCC2)c2ncc(C(F)(F)F)cc12 [Cpd 449, 2-{4-[(cyclobutylsulfonyl)amino]phenyl}-1-cyclohexyl-5-(trifluoromethyl)-1H-pyrrolo[2,3-b]pyridine-3-carboxamide]
[1]
  IC50: 0.5 to 2 µM
other
  melting point: 256 to 258 °C

## Cc1cnc2c(c1)c(C#N)c(-c1ccc(S(=O)(=O)N[C@@H](C)C(F)(F)F)cn1)n2-c1nccs1 [Cpd 450, 6-[3-cyano-5-methyl-1-(1,3-thiazol-2-yl)-1H-pyrrolo[2,3-b]pyridin-2-yl]-N-[(2S)-1,1,1-trifluoropropan-2-yl]pyridine-3-sulfonamide]
[1]
  IC50: < 0.5 µM
other
  melting point: 208 to 210 °C

## C[C@H](NS(=O)(=O)c1ccc(-c2c(C#N)c3cc(C(F)F)cnc3n2C2CCC2)nc1)C(F)(F)F [Cpd 452, 6-[3-cyano-1-cyclobutyl-5-(difluoromethyl)-1H-pyrrolo[2,3-b]pyridin-2-yl]-N-[(2S)-1,1,1-trifluoropropan-2-yl]pyridine-3-sulfonamide]
[1]
  IC50: < 0.5 µM
other
  melting point: 158 to 159 °C

## C[C@H](NS(=O)(=O)c1ccc(-c2c(C#N)c3cc(C(F)F)cnc3n2C2CCC2)cc1)C(F)(F)F [Cpd 453, 4-[3-cyano-1-cyclobutyl-5-(difluoromethyl)-1H-pyrrolo[2,3-b]pyridin-2-yl]-N-[(2S)-1,1,1-trifluoropropan-2-yl]benzenesulfonamide]
[1]
  IC50: < 0.5 µM
other
  melting point: 203 to 205 °C

## C[C@H](NS(=O)(=O)c1cnc(-c2c(C#N)c3cc(C(F)F)cnc3n2C2CCC2)nc1)C(F)(F)F [Cpd 454, 2-[3-cyano-1-cyclobutyl-5-(difluoromethyl)-1H-pyrrolo[2,3-b]pyridin-2-yl]-N-[(2S)-1,1,1-trifluoropropan-2-yl]pyrimidine-5-sulfonamide]
[1]
  IC50: < 0.5 µM
other
  melting point: 155 to 156 °C

## CC(C)NS(=O)(=O)c1ccc(-c2c(C#N)c3cc(C(F)F)cnc3n2C2CCC2)nc1 [Cpd 455, 6-[3-cyano-1-cyclobutyl-5-(difluoromethyl)-1H-pyrrolo[2,3-b]pyridin-2-yl]-N-(propan-2-yl)pyridine-3-sulfonamide]
[1]
  IC50: < 0.5 µM
other
  melting point: 189 to 190 °C

## C[C@H](NS(=O)(=O)c1ccc(-c2c(C#N)c3cc(C(F)F)cnc3n2C2CCC2)nc1)C1CC1 [Cpd 458, 6-[3-cyano-1-cyclobutyl-5-(difluoromethyl)-1H-pyrrolo[2,3-b]pyridin-2-yl]-N-[(1S)-1-cyclopropylethyl]pyridine-3-sulfonamide]
[1]
  IC50: < 0.5 µM
other
  melting point: 164 to 165 °C

## CC(C)S(=O)(=O)Nc1ccc(-c2c(C#N)c3cc(C(F)F)cnc3n2C2CCC2)cc1 [Cpd 459, N-{4-[3-cyano-1-cyclobutyl-5-(difluoromethyl)-1H-pyrrolo[2,3-b]pyridin-2-yl]phenyl}propane-2-sulfonamide]
[1]
  IC50: < 0.5 µM
other
  melting point: 179 to 180 °C

## N#Cc1c(-c2ccc(NS(=O)(=O)C3CC3)cc2)n(C2CCC2)c2ncc(C(F)F)cc12 [Cpd 460, N-{4-[3-cyano-1-cyclobutyl-5-(difluoromethyl)-1H-pyrrolo[2,3-b]pyridin-2-yl]phenyl}cyclopropanesulfonamide]
[1]
  IC50: < 0.5 µM
other
  melting point: 193 to 195 °C

## C[C@H](NS(=O)(=O)c1ccc(-c2c(C#N)c3cc(F)cnc3n2-c2cc(F)ccn2)nc1)C(F)(F)F [Cpd 461, 6-[3-cyano-5-fluoro-1-(4-fluoropyridin-2-yl)-1H-pyrrolo[2,3-b]pyridin-2-yl]-N-[(2S)-1,1,1-trifluoropropan-2-yl]pyridine-3-sulfonamide]
[1]
  IC50: < 0.5 µM
other
  melting point: 186 to 188 °C

## C[C@H](NS(=O)(=O)c1ccc(-c2c(C#N)c3cc(F)cnc3n2-c2ncc(F)cn2)nc1)C(F)(F)F [Cpd 462, 6-[3-cyano-5-fluoro-1-(5-fluoropyrimidin-2-yl)-1H-pyrrolo[2,3-b]pyridin-2-yl]-N-[(2S)-1,1,1-trifluoropropan-2-yl]pyridine-3-sulfonamide]
[1]
  IC50: < 0.5 µM
other
  melting point: 180 to 182 °C

## Cc1cnc2c(C#N)c(-c3ccc(S(=O)(=O)N[C@@H](C)C(F)(F)F)cn3)n(-c3cnccn3)c2c1 [Cpd 463, 6-[3-cyano-6-methyl-1-(pyrazin-2-yl)-1H-pyrrolo[3,2-b]pyridin-2-yl]-N-[(2S)-1,1,1-trifluoropropan-2-yl]pyridine-3-sulfonamide]
[1]
  IC50: < 0.5 µM
other
  melting point: 288 to 289 °C

## Cc1cnc2c(C#N)c(-c3ccc(S(=O)(=O)N[C@@H](C)C(F)(F)F)cn3)n(-c3cncnc3)c2c1 [Cpd 464, 6-[3-cyano-6-methyl-1-(pyrimidin-5-yl)-1H-pyrrolo[3,2-b]pyridin-2-yl]-N-[(2S)-1,1,1-trifluoropropan-2-yl]pyridine-3-sulfonamide]
[1]
  IC50: 2 to 5 µM
other
  melting point: 229 to 230 °C

## Cc1cnc2c(C#N)c(-c3ccc(S(=O)(=O)N[C@@H](C)C(F)(F)F)cn3)n(-c3ccccn3)c2c1 [Cpd 465, 6-[3-cyano-6-methyl-1-(pyridin-2-yl)-1H-pyrrolo[3,2-b]pyridin-2-yl]-N-[(2S)-1,1,1-trifluoropropan-2-yl]pyridine-3-sulfonamide]
[1]
  IC50: < 0.5 µM
other
  melting point: 242 to 244 °C

## Cc1cnc2c(C#N)c(-c3ccc(S(=O)(=O)N[C@@H](C)C(F)(F)F)cn3)n(-c3cccnc3)c2c1 [Cpd 466, 6-[3-cyano-6-methyl-1-(pyridin-3-yl)-1H-pyrrolo[3,2-b]pyridin-2-yl]-N-[(2S)-1,1,1-trifluoropropan-2-yl]pyridine-3-sulfonamide]
[1]
  IC50: < 0.5 µM
other
  melting point: 278 to 279 °C

## Cc1cnc2c(C#N)c(-c3ccc(S(=O)(=O)N[C@@H](C)C(F)(F)F)cn3)n(-c3ccc(F)cn3)c2c1 [Cpd 467, 6-[3-cyano-1-(5-fluoropyridin-2-yl)-6-methyl-1H-pyrrolo[3,2-b]pyridin-2-yl]-N-[(2S)-1,1,1-trifluoropropan-2-yl]pyridine-3-sulfonamide]
[1]
  IC50: < 0.5 µM
other
  melting point: 263 to 265 °C

From patent publication US9593108B2, “Compounds and methods for antiviral treatment” (PTC Therapeutics, Inc., priority 2009, dated 2017)
